Measured values reported in EP0641569A1, “ANTIPRURITIC” (ONO PHARMACEUTICAL CO., LTD., priority 1992, dated 1993).

Assays:
patients in hemodialysis = assay: Treatment for pruritus cutanea in hemodialysis (improvement score of itching and rash); assay type: in vivo, human; conditions: for improvement in itching: four patients in hemodialysis with severe itching, no effect with other agents, hydrate
Protocol: 8-[p-(4-phenylbutoxy)benzoyl]amino-2-(tetrazol-5-yl)-4-oxo-4H-1-benzopyran·1/2 hydrate (abbreviated as "Compound A" hereafter) were administered at the dose of 225 mg or 450 mg per day to four patients in hemodialysis (dialyzed for 3 to 11 years) who have severe itching and show no effect with other agents [no effect even with antihistamine, azerastin (anti-allergy agent already on the market) and steroid ointment]. The evaluation was carried out by improvement score of subjective symptom according to "The Standard of degree of Itching" and of rash (judged by slide).

Acute toxicity in rats = conditions: Jcl-SD, rat, in vivo, read-out: LD₅₀
Protocol: (§1) Compound A was orally or subcutaneously administered to each ten male and female 6-weeks aged Jcl-ICR mice and Jcl-SD rats, respectively per group. Two groups of Compound A (1000 and 2000 mg/kg) were used by suspending into 0.5% carboxymethyl cellulose (CMC) aqueous solution at the concentration of 100 mg/ml.

Acute toxicity in mice = conditions: Jcl-ICR, mouse, in vivo, read-out: LD₅₀
Protocol: as §1

[1] = 225 mg or 450 mg per day, four patients in hemodialysis

| SMILES | side effect (patients in hemodialysis; [1]) | subjective symptom and objective symptom (rash), daytime and nighttime (patients in hemodialysis; [1]) | improvement in itching (patients in hemodialysis; 225 mg or 450 mg per day) | improvement in itching (patients in hemodialysis; 225 mg or 450 mg per day, listed as 8-[p-(4-phenylbutoxy)benzoyl]amino-2-(tetrazol-5-yl)-4-oxo-4H-1-benzopyran semih) | LD50 (Acute toxicity in rats; po, orally, female) [mg/kg] | LD50 (Acute toxicity in rats; po, orally, male) [mg/kg] | LD50 (Acute toxicity in rats; sc, subcutaneously, female) [mg/kg] | LD50 (Acute toxicity in rats; sc, subcutaneously, male) [mg/kg] | LD50 (Acute toxicity in mice; po, orally, female) [mg/kg] | LD50 (Acute toxicity in mice; po, orally, male) [mg/kg] | LD50 (Acute toxicity in mice; sc, subcutaneously, female) [mg/kg] | LD50 (Acute toxicity in mice; sc, subcutaneously, male) [mg/kg] | effect on itching (patients in hemodialysis; earlier treatment of the same four patients with other agents) |
| --- | --- | --- | --- | --- | --- | --- | --- | --- | --- | --- | --- | --- | --- |
| O=C(Nc1cccc2c(=O)cc(-c3nnn[nH]3)oc12)c1ccc(OCCCCc2ccccc2)cc1 [Compound A, 8-[p-(4-phenylbutoxy)benzoyl]amino-2-(tetrazol-5-yl)-4-oxo-4H-1-benzopyran·1/2 hydrate] | no side effect | Improvement was shown | became better | Remarkable improvement | > 2000 | > 2000 | > 2000 | > 2000 | > 2000 | > 2000 | > 2000 | > 2000 |  |
| CN1CCCC(n2nc(Cc3ccc(Cl)cc3)c3ccccc3c2=O)CC1 (stereo not shown) [azerastin, reference compound] |  |  |  |  |  |  |  |  |  |  |  |  | no effect |
